In paper PMC3565318, “Catalytic Mechanism of Short Ethoxy Chain Nonylphenol Dehydrogenase Belonging to a Polyethylene Glycol Dehydrogenase Group in the GMC Oxidoreductase Family” (International Journal of Molecular Sciences, 2013):

Biological target: T1, NPEO-DH (short ethoxy chain nonylphenol dehydrogenase) (Ensifer sp. AS08, UniProt Q2HXX0)
T1 construct: gene pegdh; complete ORF (1659 bp, 553 residues) in pCold I, His-tag, expressed in E. coli BL21(DE3) pLysS, Ni-NTA purified; FAD flavoprotein
T1 sequence (Q2HXX0 entry or part of it): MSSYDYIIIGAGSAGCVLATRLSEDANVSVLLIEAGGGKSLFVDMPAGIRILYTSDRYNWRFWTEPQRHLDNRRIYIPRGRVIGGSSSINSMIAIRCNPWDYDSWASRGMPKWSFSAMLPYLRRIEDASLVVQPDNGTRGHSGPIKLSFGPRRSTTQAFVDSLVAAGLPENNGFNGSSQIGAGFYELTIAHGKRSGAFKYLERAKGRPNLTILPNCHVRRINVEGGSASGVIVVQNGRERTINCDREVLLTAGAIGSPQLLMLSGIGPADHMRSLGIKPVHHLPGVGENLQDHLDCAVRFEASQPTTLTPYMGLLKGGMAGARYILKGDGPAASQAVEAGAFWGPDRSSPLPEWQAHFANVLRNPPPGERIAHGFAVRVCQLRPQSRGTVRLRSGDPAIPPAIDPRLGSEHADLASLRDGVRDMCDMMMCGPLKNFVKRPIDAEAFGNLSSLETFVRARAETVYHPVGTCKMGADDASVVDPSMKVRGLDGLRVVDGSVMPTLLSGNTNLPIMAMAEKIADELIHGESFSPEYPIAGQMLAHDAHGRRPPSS
Assay: stopped-flow, absorbance at […] nm
Assay type: biochemical
Details: electron acceptor; PEG 1000-reduced enzyme, 0.01 mM DCIP, 0.1 M Tris-HCl pH 8.0, 30 °C

## O=C1C(Cl)=CC(=Nc2ccc(O)cc2)C=C1Cl [2,6-dichloroindophenol]
  stopped-flow, absorbance at 600 nm: performed with the reduced form of enzyme (reduced flavin) and a minimal concentration of DCIP
